How the values were obtained:
TcTS2 gene = test: Expression pattern of TcTS2 gene under MeJA stress (qPCR); type: cell-based, Taxus chinensis var. mairei; settings: 100 μM MeJA, 4 h, 2^−ΔΔCt, reference TcACTIN1
Experimental: (§1) Taxus chinensis var. mairei cell line 211 were divided into two groups: the experimental group (MeJA+) was soaked with 100 μM methyl jasmonate; the control group (MeJA−) was soaked with 0.05% ethanol solution. The experiments of the two groups were carried out at the same time, and the samples were collected after 0 h, 2 h, 3 h and 4 h respectively, for the analysis of the expression pattern of TcTSs gene and the content of baccatin III and paclitaxel, with three biological replicates.
(§2) EASYspin Plant Total RNA Extraction Kit (Aidlab, Beijing) was used to extract and collect the total RNA of the samples with different treatment times. 1 μg of total RNA of different samples was respectively taken for the synthesis of the first-strand cDNA, using it as the template for real-time fluorescence quantitative PCR. Kit Hifair® III 1st Strand cDNA Synthesis (YEASEN, China) and qPCR fluorescent dye kit Hieff® qPCR SYBR® Green Master Mix (Low Rox Plus) (commercial reagents, purchased from YEASEN, China) were used for the first-strand cDNA synthesis. qPCR experiments were performed on the QuantStudio™ 3 system with 2 technical replicates and 3 biological replicates. Actin1 (TcACTIN1) gene of Taxus chinensis var. mairei was used as an internal reference gene, and the relative expression of TcTSs genes was calculated by using the 2^−ΔΔCt method.

[1] = test system: Taxus chinensis var. mairei cell line 211; test: Content changes of baccatin III and paclitaxel for different treatment times of MeJA (LC-MS); type: cell-based; settings: 100 μM MeJA
Experimental: as §1
The metabolites were extracted by the modified Wolfender method. The specific steps include: weighing 100 mg of lyophilized cell powder to place it in a 2 ml centrifuge tube, adding 1.5 ml of extraction buffer (methanol:water=80:20, v/v) and vortexing to suspend it, containing 500 ng/ml dexamethasone as the internal standard, after ultrasonic extraction for 30 min, centrifuging at 14,000 g for 15 min; the supernatant was centrifuged and dried in a vacuum concentrator (LABCONCO), and finally the sample was resuspended in 200 μL methanol solvent (80:20, v/v) for LCMS analysis. Samples were analyzed by LC-MS by using an ACQUITY UPLC I-Class/AB SCIEX (Waters) instrument.
The separation column was Waters (2.1×50 mm; ACQUITY UPLC™ Waters XselectHSS T3); the injection volume was 10 μL, and the flow rate was 0.2 mL/min.
The mobile phase composition: A was 0.1% formic acid methanol; B was 0.1% formic acid water.
The LC separation procedure was as follows: equilibrating with 40% A for 2 min, followed by gradient elution for 10 min to 100% B, maintaining for 2 min, and then returning to 40% A equilibration for 1 min. ESI ion source, positive ion mode. Data acquisition and processing were performed on AB SCIEXAnalyst 1.6.3 software (Applied Biosystems).

TcTS1 gene = test: Expression pattern of TcTS1 gene under MeJA stress (qPCR); type: cell-based, Taxus chinensis var. mairei; settings: 100 μM MeJA, 0-4 h, 2^−ΔΔCt, reference TcACTIN1
Experimental: as §1, §2

[2] = In vitro activity of TcTSs-His6 (GC-MS of enzymatic reaction product); type: biochemical, Taxus chinensis var. mairei; settings: 100 μg purified protein, 100 μM GGPP, 32° C., 2 h
Experimental: The in vitro enzymatic reaction system was 500 μL, containing 100 μg purified protein, 100 μM GGPP (Sigma-Aldrich) and enzyme reaction buffer (25 mM, pH 8.5, 10% glycerol, 5 mM DTT, 5 mM ascorbate, 5 mM sodium metabisulfite and 1 mM MgCl2), the reaction mixture was covered with 500 μL of pentane (Macklin, GC-MS grade) and reacted in a 32° C. water bath for 2 h, vortexing for 2 min, centrifuging at 5000 rpm for 10 min; the pentane layer was taken out, putting into 2 mL of the sample, concentrating at low temperature by using a nitrogen blower; the product was analyzed by gas chromatography mass spectrometry (GC-MS) instrument.
The control group was the reaction product of purified recombinant protein TcTSs-His6 after being boiled at 100° C. for 10 min. The GC-MS instrument was Agilent 7890B/7000C (Agilent Technologies, Waldbronn, USA), mass spectrometry detector parameters: 70 eV, helium flow rate 1.2 mL/min, chromatographic column Agilent HP-5 MS (5% phenylmethyl silica, 30 m×250 μm inner diameter, 0.25 μm film thickness), the injection volume is 1-5 μL; the temperature program of the column oven is as follows: 45° C. for 1 min, then 10° C./min gradient increase to 250° C., and remaining at 250° C. for 5 min. […]

[3] = Kinetic constants of TcTSs-His6 ([1-3H]-GGPP, liquid scintillation counting); type: biochemical, Taxus chinensis var. mairei
Experimental: Kinetic parameter detection: standard enzymatic reaction with a total volume of 100 μL, containing enzyme reaction buffer (25 mM, pH 8.5, 10% glycerol, 5 mM DTT, 5 mM ascorbate, 5 mM sodium metabisulfite and 1 mM MgCl2), 34 μg (TcTS1-His6) or 18 μg (TcTS2-His6) recombinant protein, and […] concentrations of GGPP (0.2 μM, 0.5 μM, 1 μM, 2.5 μM, 5 μM, 10 μM, 25 μM, 50 μM) mixed with […] substrate (American Radiolabeled Chemicals, Inc, 30 Ci/mM).
Labeled [1-3H]-GGPP was diluted 400-fold with unlabeled GGPP (Sigma, 1 mg/mL). The reaction mixture was reacted at 32° C. for 30 min, then quenching with 100 μL of stop buffer (containing IM EDTA and 4M NaOH) for 10 min; the reaction mixture was extracted with 800 μL of n-hexane (vortexing for 2 min, centrifuging at 12,000 rpm for 10 min); 400 μL of n-hexane extract was taken to add into 2 mL of liquid scintillation cocktail to mix well. The total radioactivity of the reaction products was determined by using a liquid scintillation counter (Tri-Carb 2910TR, Perkin Elmer). Kinetic constants were calculated by nonlinear regression fitting of Michaelis-Menten equation through Origin 8.6 software.

[4] = substrate GGPP, 32° C., 30 min, Michaelis-Menten fit

| Molecule | induction fold of TcTS2 expression relative to 0 h (TcTS2 gene) | increased fold of baccatin III as compared to the control group ([1]; 2 h) [times] | increased fold of paclitaxel as compared to the control group ([1]; 2 h) [times] | increase fold of baccatin III ([1]; 4 h) [times] | increase fold of paclitaxel ([1]; 4 h) [times] | expression of TcTS1 under MeJA stress (TcTS1 gene) | main products taxa-4 (5), 11 (12)-diene (accounting for) [2] [%] | secondary products taxa-4 (20), 11 (12)-diene (accounting for) [2] [%] | catalytic efficiency relative to TcTS1-His6 (Kcat value) ([3]; from Kcat values) [times] | Ka [3, 4] [pM/µg/min] | Kcat [3, 4] [s⁻¹] |
| --- | --- | --- | --- | --- | --- | --- | --- | --- | --- | --- | --- |
| CC/C=C\CC1C(=O)CCC1CC(=O)OC (centres unmarked) [MeJA, methyl jasmonate] | 7 | 1.48 | 9.53 | 7.01 | 12.91 | up-regulated |  |  |  |  |  |
| TcTS2-His6: taxadiene synthase from Taxus chinensis var. mairei, amino acid sequence SEQ ID NO: 1 (protein, C-terminal His6 tag; Amino acid sequence of Taxadiene Synthase TcTS2) MSSSPTKLATENANAVAESNLIPRLSANYHGDLWHHGVIQTLQTPYQESSSYQERAEELIVKIKDMFKAVEEGAISPSAYDTAWVARVPDGSEKPRFPQALNWLLHNQLQDGSWGLESHFMLSDRLLSTLNSVISLLVWKTGQQQVEQGTLFITENLKLLEGEDELPPDFEIIFPALLQKAKALGMSLPDHDLPFIKSLSVAREARLASYTDNNIPASMLNALEGLEEVIDWDKIMRFQMPCLYSIDLLERLSLVDNIEHLGIGRHFKQEIKVALDYVYRYWSERGIGLGRDSLIPDLNTTALGLRTLRAHGYNVSSEVLNNFKDENGRFFSSLGQTHVELRSMVNLLRASDLAFPDEPLMDDAKIFAEAYLRDALATRISTNTKLFKEIDYAVEYPWHMSIPRLEARSYIDVYDDDYTWQNKTLYRMSNLSNAYCLELAKLDFNIVQSLHQEELKLLTRWWKESGMADINFTRHRVAEVYFSSATFEPEYSSTRIAFTKIGCLQVLFDDMADIFATLDELRDFTEGVKRWDTSLIHKLPDCMQTCFRVWFNLMEEVNNDVSNVQGRDMLNHIRKPWELYFNCYVQEREWLDAGYIPTLEEYLKTYSISVGLGPCTLQPILLMGDIVKDDVVEKVHYPSNLFELVSLSWRLTNDTKTYQAEKARGQQASGIACYMKDNPGSTEEDAIKYICGVVDRALKEACFEYFKPADDVPMSCKSFIFNLRLCVQIFYKFIDGYGIANEEIKDYIRKVYIEPIQV |  |  |  |  |  |  | 94 | 4 | 3 | 8.6 ± 1.5 | 0.00901 |

From patent US12104190B2, “Taxadiene synthase TcTS2, encoding nucleotide sequence and use thereof” (AGRICULTURAL GENOMICS INSTITUTE AT SHENZHEN, CHINESE …, priority 2020, dated 2024)
